Target: T1, human capsaicin receptor (Homo sapiens, UniProt Q8NER1)
T1 construct: expressed in transfected cells; host or cells: HEK293, stably transfected with pBK-CMV construct
Assay: Calcium mobilization assay, determination of antagonist activity
Type: cell-based
Settings: capsaicin at EC50; cells expressing human capsaicin receptor; Example 6
Procedure: A cDNA encoding full length human capsaicin receptor (SEQ ID NO:1, 2 or 3 of U.S. Pat. No. 6,482,611) is subcloned in the plasmid pBK-CMV (Stratagene, La Jolla, Calif.) for recombinant expression in mammalian cells.
Human embryonic kidney (HEK293) cells are transfected with the pBK-CMV expression construct encoding the full length human capsaicin receptor using standard methods. The transfected cells are selected for two weeks in media containing G418 (400 μg/ml) to obtain a pool of stably transfected cells. Independent clones are isolated from this pool by limiting dilution to obtain clonal stable cell lines for use in subsequent experiments.
Cells transfected with expression plasmids (as described in Example 4) and thereby expressing human capsaicin receptor are seeded and grown to 70-90% confluency in FALCON black-walled, clear-bottomed 96-well plates (#3904, BECTON-DICKINSON, Franklin Lakes, N.J.). The culture medium is emptied from the 96 well plates and FLUO-3 AM calcium sensitive dye (Molecular Probes, Eugene, Oreg.) is added to each well (dye solution: 1 mg FLUO-3 AM, 440 μL DMSO and 440 μl 20% pluronic acid in DMSO, diluted 1:250 in Krebs-Ringer HEPES (KRH) buffer (25 mM HEPES, 5 mM KCl, 0.96 mM NaH2PO4, 1 mM MgSO4, 2 mM CaCl2, 5 mM glucose, 1 mM probenecid, pH 7.4), 50 μl diluted solution per well). Plates are covered with aluminum foil and incubated at 37° C. for 1-2 h in an environment containing 5% CO2. After the incubation, the dye is emptied from the plates, and the cells are washed once with KRH buffer, and resuspended in KRH buffer.
To measure the ability of a test compound to agonize or antagonize a calcium mobilization response in cells expressing capsaicin receptors to capsaicin or other vanilloid agonist, the EC50 of the agonist capsaicin is first determined. An additional 20 μl of KRH buffer and 1 μl DMSO is added to each well of cells, prepared as described above. 100 μl capsaicin in KRH buffer is automatically transferred by the FLIPR instrument to each well. Capsaicin-induced calcium mobilization is monitored using either FLUOROSKAN ASCENT (Labsystems; Franklin, Mass.) or FLIPR (fluorometric imaging plate reader system; Molecular Devices, Sunnyvale, Calif.) instruments. Data obtained between 30 and 60 seconds after agonist application are used to generate an 8-point concentration response curve, with final capsaicin concentrations of 1 nM to 3 μM. KALEIDAGRAPH software (Synergy Software, Reading, Pa.) is used to fit the data to the equation: y=a*(1/(1+(b/x)^c)) to determine the 50% excitatory concentration (EC50) for the response. In this equation, y is the maximum fluorescence signal, x is the concentration of the agonist or antagonist (in this case, capsaicin), a is the Emax, b corresponds to the EC50 value and c is the Hill coefficient. Determination of Agonist Activity
Test compounds are dissolved in DMSO, diluted in 20 μl KRH buffer so that the final concentration of test compounds in the assay well is between 1 μM and 5 μM, and added to cells prepared as described above. The 96 well plates containing prepared cells and test compounds are incubated in the dark, at room temperature for 0.5 to 6 h. It is important that the incubation not continue beyond 6 h. Just prior to determining the fluorescence response, 100 μl capsaicin in KRH buffer at twice the EC50 concentration determined as described above is automatically added by the FLIPR instrument to each well of the 96 well plate for a final sample volume of 200 μl and a final capsaicin concentration equal to the EC50. The final concentration of test compounds in the assay wells is between 1 μM and 5 μM. […] The concentration of antagonist required to provide a 50% decrease, relative to the response observed in the presence of capsaicin and without antagonist, is the IC50 for the antagonist, and is preferably below 1 micromolar, 100 nanomolar, 10 nanomolar or 1 nanomolar.

T1 sequence (Q8NER1 whole entry): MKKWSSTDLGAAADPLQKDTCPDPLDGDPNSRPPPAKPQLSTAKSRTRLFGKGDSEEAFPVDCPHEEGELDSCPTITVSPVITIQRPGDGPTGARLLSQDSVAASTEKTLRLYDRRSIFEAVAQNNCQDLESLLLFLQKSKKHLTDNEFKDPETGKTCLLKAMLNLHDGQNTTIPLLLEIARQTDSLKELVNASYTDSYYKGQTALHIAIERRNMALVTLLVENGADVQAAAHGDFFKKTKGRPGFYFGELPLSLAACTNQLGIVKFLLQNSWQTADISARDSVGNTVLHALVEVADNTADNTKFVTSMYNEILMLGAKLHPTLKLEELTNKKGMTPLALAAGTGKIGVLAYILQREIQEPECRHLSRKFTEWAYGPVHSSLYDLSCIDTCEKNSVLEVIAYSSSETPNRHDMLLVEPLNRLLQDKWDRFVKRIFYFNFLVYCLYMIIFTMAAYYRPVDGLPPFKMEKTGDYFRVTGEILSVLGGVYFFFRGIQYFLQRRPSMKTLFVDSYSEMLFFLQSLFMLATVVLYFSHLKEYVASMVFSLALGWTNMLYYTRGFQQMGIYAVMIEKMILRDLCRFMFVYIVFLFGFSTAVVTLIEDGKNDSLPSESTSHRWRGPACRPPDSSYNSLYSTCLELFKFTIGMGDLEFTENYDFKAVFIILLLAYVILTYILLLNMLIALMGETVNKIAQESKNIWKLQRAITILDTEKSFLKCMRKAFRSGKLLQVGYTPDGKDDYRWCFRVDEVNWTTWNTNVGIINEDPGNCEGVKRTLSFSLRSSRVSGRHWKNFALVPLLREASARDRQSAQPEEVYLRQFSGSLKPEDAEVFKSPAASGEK

CCOC(=O)c1cnc(N2CCN(c3cc(-c4ccc(F)c(Cl)c4)nc(N4CCCC4C)n3)[C@H](C)C2)c(Cl)c1 (stereo partly drawn) [Example 18, 5-Chloro-6-{4-[6-(3-chloro-4-fluoro-phenyl)-2-(2-methyl-pyrrolidin-l-yl)-pyrimidin-4-yl]-3-(R)-methyl-piperazin-1-yl}-nicotinic acid ethyl ester]
IC50: ≤ 1 µM

CC1CCCN1c1nc(-c2ccc(F)c(Cl)c2)cc(N2CCN(c3ncc(CN(C)C)cc3Cl)CC2)n1 (stereo not drawn) [Example 19, (5-Chloro-6-{4-[6-(3-chloro-4-fluoro-phenyl)-2-(2-methyl-pyrrolidin-l-yl)-pyrimidin-4-yl]-piperazin-1-yl}-pyridin-3-ylmethyl)-dimethyl-amine]
IC50: ≤ 1 µM

COC(=O)c1cnc(N2CCN(c3cc(-c4ccc(F)c(Cl)c4)nc(N4CCCC4C)n3)CC2)c(Cl)c1 (stereo not shown) [Example 20, 5-Chloro-6-{4-[6-(3-chloro-4-fluoro-phenyl)-2-(2-methyl-pyrrolidin-1-yl)-pyrimidin-4-yl]-piperazin-1-yl}-nicotinic acid methyl ester]
IC50: ≤ 1 µM

CC1CCCN1c1nc(-c2ccc(F)c(Cl)c2)cc(N2CCN(c3ncc(C(=O)O)cc3Cl)CC2)n1 (stereo not shown) [Example 21, 5-Chloro-6-{4-[6-(3-chloro-4-fluoro-phenyl)-2-(2-methyl-pyrrolidin-1-yl)-pyrimidin-4-yl]-piperazin-1-yl}-nicotinic acid]
IC50: ≤ 1 µM

COc1ccc([N+](=O)[O-])c(N2CCN(c3cc(-c4ccc(F)c(Cl)c4)nc(N4CCCC4C)n3)CC2)n1 (stereo not shown) [Example 22, 4-(3-Chloro-4-fluoro-phenyl)-6-[4-(6-methoxy-3-nitro-pyridin-2-yl)-piperazin-1-yl]-2-(2-methyl-pyrrolidin-1-yl)-pyrimidine]
IC50: ≤ 1 µM

CCCN1CCN(c2nc(-c3ccc(F)c(Cl)c3)cc(N3CCN(c4ncc(C(=O)OCC)cc4Cl)CC3)n2)CC1 [Example 23, 5-Chloro-6-{4-[6-(3-chloro-4-fluoro-phenyl)-2-(4-propyl-piperazin-l-yl)-pyrimidin-4-yl] - piperazin-1-yl}-nicotinic acid ethyl ester]
IC50: ≤ 1 µM

CC1CCCN1c1nc(-c2ccc(F)c(Cl)c2)cc(N2CCN(c3ncc(C(N)=O)cc3Cl)C[C@H]2C)n1 (stereo partly drawn) [Example 24, 5-Chloro-6-{4-[6-(3-chloro-4-fluoro-phenyl)-2-(2-methyl-pyrrolidin-1-yl)-pyrimidin-4-yl]-3-(R)-methyl-piperazin-l-yl}-nicotinamide]
IC50: ≤ 1 µM

CC1CCCN1c1nc(-c2ccc(F)cc2)cc(N2CCN(c3ncc(C(=O)O)cc3Cl)CC2)n1 (stereo not shown) [Example 25, 5-Chloro-6-{4-[6-(4-fluoro-phenyl)-2-(2-methyl-pyrrolidin-1-yl)-pyrimidin-4-yl]-piperazin-1-yl}-nicotinic acid]
IC50: ≤ 1 µM

CC1CCCN1c1nc(-c2ccc(F)cc2)cc(N2CCN(c3ncc(CO)cc3Cl)CC2)n1 (stereo not shown) [Example 26, (5-Chloro-6-{4-[6-(4-fluoro-phenyl)-2-(2-methyl-pyrrolidin-1-yl)-pyrimidin-4-yl]-piperazin-1-yl}-pyridin-3-yl)-methanol]
IC50: ≤ 1 µM

CCOC(=O)c1cnc(N2CCN(c3cc(-c4ccc(F)cc4)nc(N4CCCC4C)n3)[C@H](C)C2)c(Cl)c1 (stereo partly drawn) [Example 27, 5-Chloro-6-{4-[6-(4-fluoro-phenyl)-2-(2-methyl-pyrrolidin-1-yl)-pyrimidin-4-yl]-3-(R)-methyl-piperazin-1-yl}-nicotinic acid ethyl ester]
IC50: ≤ 1 µM

CCOC(=O)c1cnc(N2CCN(c3cc(-c4ccc(F)cc4)nc(N4CCCC4)n3)[C@H](C)C2)c(Cl)c1 [Example 28, 5-Chloro-6-{4-[6-(4-fluoro-phenyl)-2-pyrrolidin-1-yl-pyrimidin-4-yl]-3-(R)-methyl-piperazin-1-yl}-nicotinic acid ethyl ester]
IC50: ≤ 1 µM

CC1CCCN1c1nc(-c2ccc(F)cc2)cc(N2CCN(c3ncc(C(=O)O)cc3Cl)C[C@H]2C)n1 (stereo partly drawn) [Example 29, 5-Chloro-6-{4-[6-(4-fluoro-phenyl)-2-(2-methyl-pyrrolidin-1-yl)-pyrimidin-4-yl]-3-(R)-methyl-piperazin-1-yl}-nicotinic acid]
IC50: ≤ 1 µM

C[C@@H]1CN(c2ncc(C(=O)O)cc2Cl)CCN1c1cc(-c2ccc(F)cc2)nc(N2CCCC2)n1 [Example 30, 5-Chloro-6-{4-[6-(4-fluoro-phenyl)-2-pyrrolidin-1-yl-pyrimidin-4-yl]-3-(R)-methyl-piperazin-1-yl}-nicotinic acid]
IC50: ≤ 1 µM

CC1CCCN1c1nc(-c2ccc(F)cc2)cc(N2CCN(c3ncc(CO)cc3Cl)C[C@H]2C)n1 (stereo partly drawn) [Example 31, (5-Chloro-6-{4-[6-(4-fluoro-phenyl)-2-(2-methyl-pyrrolidin-1-yl)-pyrimidin-4-yl]-3-(R)-methyl-piperazin-1-yl}-pyridin-3-yl)-methanol]
IC50: ≤ 1 µM

C[C@@H]1CN(c2ncc(CO)cc2Cl)CCN1c1cc(-c2ccc(F)cc2)nc(N2CCCC2)n1 [Example 32, (5-Chloro-6-{4-[6-(4-fluoro-phenyl)-2-pyrrolidin-1-yl-pyrimidin-4-yl]-3-(R)-methyl-piperazin-1-yl}-pyridin-3-yl)-methanol]
IC50: ≤ 1 µM

CC1CCCN1c1nc(-c2ccc(F)cc2)cc(N2CCN(c3ncc(C(N)=O)cc3Cl)C[C@H]2C)n1 (stereo partly drawn) [Example 33, 5-Chloro-6-{4-[6-(4-fluoro-phenyl)-2-(2-methyl-pyrrolidin-1-yl)-pyrimidin-4-yl]-3-(R)-methyl-piperazin-1-yl}-nicotinamide]
IC50: ≤ 1 µM

Cc1cc(C(=O)O)cnc1N1CCN(c2cc(-c3ccc(F)cc3)nc(N3CCCC3C)n2)[C@H](C)C1 (stereo partly drawn) [Example 34, 6-{4-[6-(4-Fluoro-phenyl)-2-(2-methyl-pyrrolidin-1-yl)-pyrimidin-4-yl]-3-(R)-methyl-piperazin-1-yl}-5-methyl-nicotinic acid]
IC50: ≤ 1 µM

Cc1cc(C(=O)O)cnc1N1CCN(c2cc(-c3ccc(F)cc3)nc(N3CCCC3C)n2)CC1 (stereo not shown) [Example 36, 6-{4-[6-(4-Fluoro-phenyl)-2-(2-methyl-pyrrolidin-1-yl)-pyrimidin-4-yl]-piperazin-1-yl}-5-methyl-nicotinic acid]
IC50: ≤ 1 µM

Cc1cc(CO)cnc1N1CCN(c2cc(-c3ccc(F)cc3)nc(N3CCCC3C)n2)[C@H](C)C1 (stereo partly drawn) [Example 37, (6-{4-[6-(4-Fluoro-phenyl)-2-(2-methyl-pyrrolidin-1-yl)-pyrimidin-4-yl]-3-(R)-methyl-piperazin-1-yl}-5-methyl-pyridin-3-yl)-methanol]
IC50: ≤ 1 µM

Cc1cc(CO)cnc1N1CCN(c2cc(-c3ccc(F)cc3)nc(N3CCCC3C)n2)CC1 (stereo not shown) [Example 38, (6-{4-[6-(4-Fluoro-phenyl)-2-(2-methyl-pyrrolidin-1-yl)-pyrimidin-4-yl]-piperazin-1-yl}-5-methyl-pyridin-3-yl)-methanol]
IC50: ≤ 1 µM

CC1CCCN1c1nc(-c2ccc(F)cc2)cc(N2CCN(c3ncc(CC(=O)O)cc3Cl)CC2)n1 (stereo not shown) [Example 39, (5-Chloro-6-{4-[6-(4-fluoro-phenyl)-2-(2-methyl-pyrrolidin-1-yl)-pyrimidin-4-yl]-piperazin-1-yl}-pyridin-3-yl)-acetic acid]
IC50: ≤ 1 µM

CC1CCCN1c1nc(-c2ccc(F)cc2)cc(N2CCN(c3ncc(C(N)=O)cc3Cl)CC2)n1 (stereo not shown) [Example 40, 5-Chloro-6-{4-[6-(4-fluoro-phenyl)-2-(2-methyl-pyrrolidin-1-yl)-pyrimidin-4-yl]-piperazin-1-yl}-nicotinamide]
IC50: ≤ 1 µM
